The results in this text go back to patent US20240262795A1, “PYRAZINE COMPOUNDS AS INHIBITORS OF FLT3” (Biomea Fusion, Inc., priority 2021, published 2024).

The target in the test is T1, Ba/F3 cell lines stably expressing human FLT3-ITD-D835Y (Homo sapiens, UniProt P36888, D835Y, cells depend on it, form not given).
T1 construct: Ba/F3-FLT3-ITD-D835Y Relative IC50
T1 sequence (P36888 1-993 D835Y): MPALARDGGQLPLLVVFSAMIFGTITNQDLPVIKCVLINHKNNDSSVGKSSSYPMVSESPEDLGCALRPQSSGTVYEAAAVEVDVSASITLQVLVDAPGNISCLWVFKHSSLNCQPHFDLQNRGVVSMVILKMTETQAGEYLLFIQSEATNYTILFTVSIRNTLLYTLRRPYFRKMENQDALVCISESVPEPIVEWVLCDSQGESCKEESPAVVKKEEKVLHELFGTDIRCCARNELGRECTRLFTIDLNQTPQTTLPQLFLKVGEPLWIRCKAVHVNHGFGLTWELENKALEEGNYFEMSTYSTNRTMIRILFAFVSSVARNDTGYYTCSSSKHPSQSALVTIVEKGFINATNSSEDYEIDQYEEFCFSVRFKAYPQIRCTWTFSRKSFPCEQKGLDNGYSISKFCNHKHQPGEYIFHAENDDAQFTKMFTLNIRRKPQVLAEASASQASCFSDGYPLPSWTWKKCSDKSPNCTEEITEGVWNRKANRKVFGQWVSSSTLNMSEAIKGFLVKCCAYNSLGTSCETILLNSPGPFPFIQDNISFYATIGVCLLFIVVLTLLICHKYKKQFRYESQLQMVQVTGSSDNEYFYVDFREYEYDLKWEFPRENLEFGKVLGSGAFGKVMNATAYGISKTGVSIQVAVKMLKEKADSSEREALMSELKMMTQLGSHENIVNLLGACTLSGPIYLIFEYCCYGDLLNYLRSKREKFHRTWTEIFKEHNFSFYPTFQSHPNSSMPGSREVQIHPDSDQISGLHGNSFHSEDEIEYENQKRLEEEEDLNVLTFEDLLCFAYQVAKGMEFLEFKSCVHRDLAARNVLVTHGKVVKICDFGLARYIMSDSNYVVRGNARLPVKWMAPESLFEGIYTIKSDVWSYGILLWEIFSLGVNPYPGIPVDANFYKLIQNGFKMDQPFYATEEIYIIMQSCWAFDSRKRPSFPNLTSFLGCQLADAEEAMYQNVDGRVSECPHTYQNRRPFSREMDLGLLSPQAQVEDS
Briefly: FLT3 mutant assay, cell viability, Ba/F3-FLT3-ITD-D835Y. As to conditions: IC50 (3 days), CellTiter-Glo; read-out: Ba/F3-FLT3-ITD-D835Y Relative IC50. Format: cell-based, mouse. As to the method: Activity of compounds on FLT3 activating mutations were assessed using Ba/F3 cell lines (mouse pro-B cell line) stably expressing human FLT3-ITD, FLT3-ITD-D835Y or FLT3-ITD-F691L. […] The supernatant collected were concentrated with PEG8000 and used to infect Ba/F3 cells at 1-5 MOI in serum-free media with polybrene. Infected Ba/F3 cells were selected in presence of puromycin, and surviving cells verified by sequencing and/or protein detection assay. Constitutive expression of the activating kinase transforms the Ba/F3 cells into IL-3-independent growth allowing them to be cultured in the absence of IL-3. […] For use in compound testing, cells in exponential growth phase were harvested, counted, and resuspended at the required cell density. Cell viability assays were performed in 96-well assay plates and 90 μL of cell suspension seeded per well. Serial dilutions of the test compounds and assay controls and were freshly prepared for the assay. Nine-point 3× serial dilutions were prepared in 100% DMSO (400× stock) and subsequently diluted in cell culture media to obtain 10× stocks. Ten microliters of the 10× stock serial dilutions were added to the appropriate wells (triplicate wells per condition) in the assay plate. […] Assay plates were incubated for 3 days in at 37° C. in a humidified incubator with 5% CO2.
Inhibition rate (IR) of the tested compounds was determined by the following formula: IR (%)=(1−(RLU compound−RLU blank)/(RLU control−RLU blank))*100%. The inhibitions of different dose of compound were calculated in Excel file, and the dose responses were analysed using GraphPad Prism to evaluate related parameters, such as Bottom, Top and IC50. For the IC50 analysis by GraphPad Prism, the equation below was used to fit curve: Y=Bottom+(Top−Bottom)/(1+10^((LogIC50−X)*HillSlope))
(In general: In ATP-based viability assays light output follows the ATP content of the culture.)

For `CCc1nc(C(N)=O)c(Nc2cccc(CCNC(=O)[C@H](C)N(C)C(=O)/C=C/CN(C)C)c2)nc1N(C)C(C)C` [Compound 204, (S,E)-3-((3-(2-(2-(4-(dimethylamino)-N-methylbut-2-enamido)propanamido)ethyl)phenyl)amino)-6-ethyl-5-(isopropyl(methyl)amino)pyrazine-2-carboxamide], the GI50 was in the range of 1 to 10 nM.
The result for `CCc1nc(C(N)=O)c(Nc2cccc(CCNC(=O)[C@H](C)N(C)C(=O)/C=C/CN(C)C)c2)nc1NC(C)C` [Compound 205, (S,E)-3-((3-(2-(2-(4-(dimethylamino)-N-methylbut-2-enamido)propanamido)ethyl)phenyl)amino)-6-ethyl-5-(isopropylamino)pyrazine-2-carboxamide] reads 1 to 10 nM; that for `CCc1nc(C(N)=O)c(Nc2cccc(CCNC(=O)CN(C)C(=O)/C=C/CN(C)C)c2)nc1C1CC1` [Compound 219, (E)-5-cyclopropyl-3-((3-(2-(2-(4-(dimethylamino)-N-methylbut-2-enamido)acetamido)ethyl)phenyl)amino)-6-ethylpyrazine-2-carboxamide], 10 to 100 nM; that for `Cc1nc(C(N)=O)c(Nc2cccc(CCNC(=O)[C@H](C)N(C)C(=O)/C=C/CN(C)C)c2)nc1N(C)C(C)C` [Compound 232, (S, E)-3-((3-(2-(2-(4-(dimethylamino)-N-methylbut-2-enamido)propanamido)ethyl)phenyl)amino)-5-(isopropyl (methyl)amino)-6-methylpyrazine-2-carboxamide], 10 to 100 nM.
For `Cc1nc(C(N)=O)c(Nc2cccc(CCNC(=O)CN(C)C(=O)/C=C/CN(C)C)c2)nc1N(C)C(C)C` [Compound 250, (E)-3-((3-(2-(2-(4-(dimethylamino)-N-methylbut-2-enamido)acetamido)ethyl)phenyl)amino)-5-(isopropyl(methyl)amino)-6-methylpyrazine-2-carboxamide] the value was 10 to 100 nM; for `CCc1nc(C(N)=O)c(Nc2cccc(CCNC(=O)CN(C)C(=O)/C=C/CN(C)C)c2)nc1N(C)CC` [Compound 252, (E)-3-((3-(2-(2-(4-(dimethylamino)-N-methylbut-2-enamido)acetamido)ethyl)phenyl)amino)-6-ethyl-5-(ethyl (methyl)amino) pyrazine-2-carboxamide], 1 to 10 nM.
For `CCc1nc(C(N)=O)c(Nc2cccc(CCNC(=O)[C@H](C)N(C)C(=O)/C=C/CNC)c2)nc1N(C)C(C)C` [Compound 307, (S,E)-6-ethyl-5-(isopropyl(methyl)amino)-3-((3-(2-(2-(N-methyl-4-(methylamino)but-2-enamido)propanamido)ethyl)phenyl)amino)pyrazine-2-carboxamide] the value was 10 to 100 nM; for `CCc1nc(C(N)=O)c(Nc2ccnc(CCNC(=O)[C@H](C)N(C)C(=O)/C=C/CN(C)C)c2)nc1C1CC1` [Compound 310, (S,E)-5-cyclopropyl-3-((2-(2-(2-(4-(dimethylamino)-N-methylbut-2-enamido)propanamido)ethyl)pyridin-4-yl)amino)-6-ethylpyrazine-2-carboxamide], 10 to 100 nM.
Take `CCc1nc(C(N)=O)c(Nc2cccc([C@@H](C)CNC(=O)CN(C)C(=O)/C=C/CN(C)C)c2)nc1C1CC1` [Compound 504, (R,E)-5-cyclopropyl-3-((3-(1-(2-(4-(dimethylamino)-N-methylbut-2-enamido)acetamido)propan-2-yl)phenyl)amino)-6-ethylpyrazine-2-carboxamide]: the GI50 lay in the range of 10 to 100 nM.
The result for `CCc1nc(C(N)=O)c(Nc2cccc([C@@H](C)CNC(=O)CN(C)C(=O)/C=C/CN3CCC3)c2)nc1C1CC1` [Compound 506, (R,E)-3-((3-(1-(2-(4-(azetidin-1-yl)-N-methylbut-2-enamido)acetamido)propan-2-yl)phenyl)amino)-5-cyclopropyl-6-ethylpyrazine-2-carboxamide] reads 10 to 100 nM; that for `CCCc1nc(Nc2cccc([C@@H](C)CNC(=O)CN(C)C(=O)/C=C/CN3CCC3)c2)c(C(N)=O)nc1CC` [Compound 507, (R,E)-3-((3-(1-(2-(4-(azetidin-1-yl)-N-methylbut-2-enamido)acetamido)propan-2-yl)phenyl)amino)-6-ethyl-5-propylpyrazine-2-carboxamide], 10 to 100 nM.
For `CCc1nc(Nc2cccc([C@@H](C)CNC(=O)CN(C)C(=O)/C=C/CN3CCC3)c2)c(C(N)=O)nc1CC` [Compound 508, (R, E)-3-((3-(1-(2-(4-(azetidin-1-yl)-N-methylbut-2-enamido)acetamido)propan-2-yl)phenyl)amino)-5,6-diethylpyrazine-2-carboxamide], the GI50 was in the range of 10 to 100 nM.
Consider `CCc1nc(C(N)=O)c(Nc2cc(F)cc(CCNC(=O)CN(C)C(=O)/C=C/CN3CCC3)c2)nc1C1CC1` [Compound 516, (E)-3-((3-(2-(2-(4-(azetidin-1-yl)-N-methylbut-2-enamido)acetamido)ethyl)-5-fluorophenyl)amino)-5-cyclopropyl-6-ethylpyrazine-2-carboxamide], for which the GI50 lay within 10 to 100 nM.
For `CCc1nc(C(N)=O)c(Nc2cccc(CCNC(=O)CN(C)C(=O)/C=C/CN3CCC3)c2)nc1N(C)CC` [Compound 516A, (E)-3-((3-(2-(2-(4-(azetidin-1-yl)-N-methylbut-2-enamido)acetamido)ethyl)phenyl)amino)-6-ethyl-5-(ethyl(methyl)amino) pyrazine-2-carboxamide] the value was 10 to 100 nM; for `CCc1nc(C(N)=O)c(Nc2cccc([C@@H](C)CNC(=O)CN(C)C(=O)/C=C/CN3CCC3)c2)nc1N(C)CC` [Compound 518, (R,E)-3-((3-(1-(2-(4-(azetidin-1-yl)-N-methylbut-2-enamido)acetamido)propan-2-yl)phenyl)amino)-6-ethyl-5-(ethyl(methyl)amino)pyrazine-2-carboxamide], 10 to 100 nM; for `CCOc1nc(Nc2cccc(CCNC(=O)CN(C)C(=O)/C=C/CN3CCC3)c2)c(C(N)=O)nc1CC` [Compound 602, (E)-3-((3-(2-(2-(4-(azetidin-1-yl)-N-methylbut-2-enamido)acetamido)ethyl)phenyl)amino)-5-ethoxy-6-ethylpyrazine-2-carboxamide], 10 to 100 nM.
For the compound `CCc1nc(C(N)=O)c(Nc2cccc(CCNC(=O)CN(C)C(=O)/C=C/CN3CCC3)c2)nc1OC(C)C` [Compound 603, (E)-3-((3-(2-(2-(4-(azetidin-1-yl)-N-methylbut-2-enamido)acetamido)ethyl)phenyl)amino)-6-ethyl-5-isopropoxypyrazine-2-carboxamide], the GI50 is 10 to 100 nM.
For `CCc1nc(C(N)=O)c(Nc2ccnc(CCNC(=O)[C@H](C)N(C)C(=O)/C=C/CN(C)C)c2)nc1N(C)C(C)C` [Compound 605, (S, E)-3-((2-(2-(2-(4-(dimethylamino)-N-methylbut-2-enamido)propanamido)ethyl)pyridin-4-yl)amino)-6-ethyl-5-(isopropyl (methyl)amino) pyrazine-2-carboxamide] the value was 10 to 100 nM; for `CCc1nc(C(N)=O)c(Nc2ccc(N3CCC(N4CCN(C)CC4)CC3)c(OC)c2)nc1NC1CCOCC1` [Gilteritinib, gilteritinib, reference compound], 10 to 100 nM.
